US11471508B2, “HMGB1 antagonist treatment of diabetic peripheral neuropathy” (THE FEINSTEIN INSTITUTES FOR MEDICAL RESEARCH, priority 2019, dated 2022)
Entries after “also recorded” stand apart in the source; their conditions may differ. Where two headings read alike, the source gives them in different places.

What was measured:
[1] = test system: liver ischemia and reperfusion injury; test: Warm liver ischemia and reperfusion (I/R) model; assay type: in vivo, mouse; conditions: 6 hours after reperfusion, vs vehicle control
Procedure: […] (SEQ ID NO: 1) (or vehicle control) was administered intraperitoneally at 500 μg/mouse at the time of I/R surgery and euthanized 6 hours later. Serum levels of ALT and AST were reduced in […] (SEQ ID NO: 1)-treated group vs. vehicle controls. *: P<0.05 vs. I/R group. n=5-7 mice/group. […] (SEQ ID NO: 1)-treated mice as compared to vehicle control (neutrophil infiltration, arrow). n=3-5 mice per group.

[2] = Degradation in rat plasma and whole blood; assay type: in vitro ADME
[3] = test system: CCI-induced neuropathic pain; test: Chronic constriction injury of the sciatic nerve (CCI) neuropathic pain model; assay type: in vivo, rat
[4] = test system: HMGB1-induced TNF release; test: HMGB1-induced TNF release in human primary macrophages (ELISA); assay type: cell-based; conditions: FIG. 17A
Procedure: For all of these studies, TNF released was measured using an ELISA.

[5] = test system: DAMPs (CIRP, SAA, PEDF, HSP 70, HSP90, H2A)-induced TNF secretion; test: DAMPs-induced TNF secretion in human macrophages; assay type: cell-based; conditions: 16 hours
Oral bioavailability = conditions: in vivo
[6] = Pharmacokinetics after intravenous administration at 1 mg/kg in male Sprague-Dawley rats (LC-MS); conditions: Mean
in vivo = conditions: male, Sprague-Dawley, rat, iv, 1 mg/kg, AUCtest
[7] = test system: PAMPs (LPS, PGN, AGE and Poly I:C)-induced TNF release; test: PAMPs-induced TNF release in human macrophages; assay type: cell-based; conditions: LPS 4 ng/ml, poly I:C 50 μg/ml, PGN 5 μg/ml, S100A12 50 μg/ml; 16 hours
Procedure: TNF released was measured.

[8] = assay type: in vivo; conditions: single-dose, rats
[9] = test system: APAP-induced liver injury; test: APAP-induced liver injury model; assay type: in vivo, mouse
[10] = male, Sprague-Dawley, rat, in vivo
[11] = Stability under acidic conditions (pH=2), LC-MS; assay type: physicochemical; conditions: pH=2, two hours
STZ-induced diabetes = test: STZ-induced diabetes; assay type: in vivo; conditions: repetitive administration, 500 μg/mouse
Procedure: In Example 21, the effect of selective HMGB1-TLR4/MD-2 inhibition in STZ-induced diabetes was evaluated. Increased levels of HMGB1 have been reported in both diabetic patients and animal models. For example, elevated expression of HMGB1 is found in the retinas of diabetic patients and rat models with retinopathy. ([…]., Upregulation of RAGE and its ligands in proliferative retinal disease, Experimental Eye Research, 2006; 82(5): 807-815; Yu Y., The role of high mobility group box 1 (HMGB-1) in the diabetic retinopathy inflammation and apoptosis, International Journal of Clinical and Experimental Pathology, 2015; 8(6): 6807). […] (Dasu M. […] Based on this literature, tests were conducted on the effects of […] (SEQ ID NO: 1) and […] on STZ-induced diabetes in mice. Mice were administered repetitive administration of […] (500 μg/mouse). […] Repetitive administration of […] was therefore shown to be beneficial in STZ-induced diabetes. […] (*: P<0.05 vs. PBS group. N=6-8 mice per group).

[12] = test system: HMGB1-induced TNF release; conditions: cited from earlier work
[13] = test system: liver ischemia and reperfusion injury; conditions: cited from earlier work
[14] = test system: TNF release stimulated by LPS, PGN, Poly I:C, CpG DNA or S100 A12; conditions: cited from earlier work
[15] = test system: APAP-induced liver injury; conditions: cited from earlier work

For `NC(=O)N(CCC(=O)O)NC(=O)[C@H](CO)NC(=O)[C@H](CO)NC(=O)N(N)Cc1ccccc1` [K883], the “liver inflammation (H&E, neutrophil infiltration)” value [1] was “reduced inflammation”, the “degradation after incubating 120 minutes” value [2] was “not degraded” and the “Paw Withdrawal Latency (sec), CCI” value ([3]; 0 hours post treatment, K883 800 μg/rat or 2g7 300 μg/rat IP) was 4.1 ± 1.0 s. For the same molecule, the “mechanical and thermal hypersensitivity” value ([3]; 800 μg/rat IP once a day for 3 days, Hargreaves, von Frey) was “ameliorated both mechanical and thermal hypersensitivity; also recorded: improved CCI-induced thermal and mechanical hypersensitivity”, the “tolerance to repeated treatment” value ([3]; 800 μg/rat IP once daily for three days, 2 weeks) was “did not develop tolerance” and the “Paw Withdrawal Latency (sec), CCI” value ([3]; 2 hours post treatment) was 4.3 ± 1.2 s. For the same molecule, the “Paw Withdrawal Latency (sec), CCI” value ([3]; 6 hours post treatment) was 6.0 ± 0.6 s, the “Paw Withdrawal Latency (sec), CCI” value ([3]; 24 hours post treatment) was 5.0 ± 0.5 s and the thermal hypersensitivity ([3]; CCI rats) was “ameliorated the thermal hypersensitivity”. For the same molecule, the “CCI-induced CXCL1 and TNF expression (DRGs)” value ([3]; DRGs) was “reduce CCI-induced CSCL1 and TNF expression”, the “CCI-induced CXCL1, TNF and IL-1β expression (spine)” value ([3]; spine) was “reduce CCI-induced CSCL1, TNF and IL-1β expression” and the “HMGB1-induced TNF secretion” value [4] was “causes inhibition”. The “TNF secretion induced by other DAMPs” value [5] was “is not inhibited”, the oral bioavailability (Oral bioavailability) was “low” and the Plasma concentration ([6]; 0.50 hr) was 2913 ng/mL. It also gave a Plasma concentration ([6]; 1.0 hr) of 1091 ng/mL, a Plasma concentration ([6]; 2.0 hr) of 135 ng/mL and a Plasma concentration ([6]; 4.0 hr) of 16.6 ng/mL. For the same molecule, the Plasma concentration ([6]; 8.0 hr) was 1.52 ng/mL, the AUC (in vivo) was 3770 ng·h/mL and the “PAMPs-induced TNF release” value [7] was “failed to inhibit other PAMPS; also recorded: does not inhibit other PAMPs”. The tolerability [8] was “well-tolerated”, the “liver necrosis (H&E)” value ([9]; APAP 350 mg/kg, K883 50 μg/mouse IP at 2 and 7 hours, 24 hours post-APAP, vs vehicle) was “reduced liver necrosis” and the “mice surviving 2 weeks post-APAP” value ([9]; APAP 400 mg/kg, 50 μg/mouse IP once-a-day for 5 days from 2 hours post-APAP, control group 8) was 14 mice out of 15. It also gave a Plasma concentration ([10]; 0.5 hr) of 2500 ng/mL, a Plasma concentration ([10]; 1 hr) of 1300 ng/mL and a Plasma concentration ([10]; 2 hr) of 130 ng/mL. The Plasma concentration ([10]; 6 hr) was 5.10 ng/mL, the Plasma concentration ([10]; 8 hr) was 2.01 ng/mL and the “stability to acid hydrolysis” value [11] was “resistant to acid hydrolysis”. For the same molecule, the insulitis (STZ-induced diabetes) was “reduces insulitis”, the weight gain (STZ-induced diabetes) was “improves weight gain” and the hyperglycemia (STZ-induced diabetes; vs AI5779 or PBS controls) was “delays hyperglycemia”.
For `NC(=O)[C@H](CCC(=O)O)NC(=O)[C@H](CO)NC(=O)[C@H](CO)NC(=O)[C@@H](N)Cc1ccccc1` [P5779], the “HMGB1-induced TNF release from macrophages” value [12] is given as “inhibit HMGB1-induced TNF release from macrophages in a concentration-dependent manner”, the “serum levels of ALT and AST” value ([13]; 500 μg/mouse IP at time of I/R surgery, 6 hours) is given as “reduced” and the “liver inflammation (H&E, neutrophil infiltration)” value ([13]; 6 hours after reperfusion, vs vehicle control) is given as “reduced inflammation”. The “TNF release in macrophages stimulated by LPS, PGN, Poly I:C, CpG DNA or S100 A12” value [14] was “not suppress TNF release”, the “serum ALT” value ([15]; 500 ugs/mouse) was “significant reductions in ALT” and the “liver necrosis (H&E)” value ([15]; APAP 350 mg/kg, P5779 50 or 500 μg/mouse IP at 2 and 7 hours, vs scrambled control peptide) was “reduced liver necrosis”. The “percent survival (2 weeks) post-APAP” value ([15]; APAP 400 mg/kg, 500 μg/mouse IP once a day for 5 days) was “significantly improved”.
